Laboratory results as given in publication PMC8037669, “Discovery of Novel Sultone Fused Berberine Derivatives as Promising Tdp1 Inhibitors” (Molecules, 2021).
Several values for one entry are separate records, joined by “and”; a condition that tells them apart may be missing. Equal entries are not always repeated. Entries after “also recorded” stand apart in the source; their conditions may differ. Where two headings read alike, the source gives them in different places.

How the values were obtained:
[1] = molecular target: T1, tyrosyl-DNA phosphodiesterase 1 (Tdp1) (Homo sapiens, UniProt Q9NUW8); test: Tdp1 activity, fluorescent oligonucleotide biosensor (FAM/BHQ1) assay; type: biochemical; conditions: purified Tdp1 1.5 nM, 50 nM biosensor; read-out: Tdp1 inhibiting activity IC50
T1 construct: Purified Tdp1 (1.5 nM) triggered the reaction
Description: In this work, newly synthesized sultones were tested for their inhibition of Tdp1. Tdp1 activity was measured using a fluorescent biosensor as previously described. The biosensor is an oligonucleotide with a fluorophore (FAM) at the 5′-end and a fluorescence quencher (BHQ1) at the 3′-end. Due to the activity of the enzyme, the quencher is removed, which leads to an increase in the fluorescence intensity. Inhibitors prevent the removal of the quencher, thus reducing the fluorescence intensity.
Tdp1 activity was detected, as described in the work in Reference, and consists of fluorescence intensity measurement in a reaction of quencher removal from a fluorophore quencher–coupled DNA oligonucleotide catalyzed by Tdp1. The reaction was carried out at different concentrations of inhibitors (the control samples contained 1% of DMSO). The reaction mixtures contained Tdp1 buffer (50 mM Tris-HCl pH 8.0, 50 mM NaCl, and 7 mM β-mercaptoethanol), 50 nM biosensor, and an inhibitor being tested. Purified Tdp1 (1.5 nM) triggered the reaction. The biosensor (5′-[FAM] AAC GTC AGGGTC TTC C [BHQ]-3′) was synthesized in the Laboratory of Biomedical Chemistry at the Institute of Chemical Biology and Fundamental Medicine (Novosibirsk, Russia).
The reactions were incubated on a POLARstar OPTIMA fluorimeter (BMG LABTECH, GmbH, Ortenberg, Germany) to measure fluorescence every 55 s (ex. 485/em. 520 nm) during the linear phase (here, data from minute 0 to minute 8). The values of IC50 were determined using a six-point concentration response curve in a minimum of three independent experiments and were calculated using MARS Data Analysis 2.0 (BMG LABTECH, Ortenberg, Germany).

[2] = Cytotoxicity, EZ4U Cell Proliferation and Cytotoxicity Assay; type: cell-based, human; conditions: human
Description: (§1) All compounds have no intrinsic toxicity in the concentration range up to 100 μM (Figure 8) in HeLa cells, with the exception of 16a and berberine, which are toxic at concentrations above 20 μM. 16a is slightly toxic (CC50 ~ 100 μM) and differs from non-toxic 10a in the presence of a double bond in the sultone cycle. The original berberine 1 is toxic to HeLa cells with a cytotoxic concentration (CC50) of 20 μM, which is consistent with the literature data.
(§2) Cytotoxicity of the compounds to HeLa (human cervical cancer) cell line was examined using the EZ4U Cell Proliferation and Cytotoxicity Assay (Biomedica, Vienna, Austria), according to the manufacturer’s protocols. The cells were grown in Iscove’s modified Dulbecco’s medium (IMDM) with 40 μg/mL gentamicin, 50 IU/mL penicillin, 50 μg/mL streptomycin (MP Biomedicals, Waltham, MA, USA), and 10% of fetal bovine serum (Biolot, Saint Petersburg, Russia) in a 5% CO2 atmosphere. After the formation of a 30–50%-monolayer, the tested compounds were added to the medium. The volume of the added reagents was 1/100 of the total volume of the culture medium, and the amount of DMSO was 1% of the final volume. Control cells were grown in the presence of 1% DMSO. The cell culture was monitored for 3 days.

[3] = system: HeLa cells; test: as above; type: cell-based, human
Description: as §1, §2

[4] = system: HeLa cells; test: Sensitization of cells to topotecan cytotoxicity by Tdp1 inhibitors; type: cell-based, human; conditions: inhibitor at 20 μM, varied topotecan concentrations; Mann-Whitney U-test, p = 0.05
Description: In this work, we also tested the ability of the berberrubine sultones to sensitize cells to the action of topotecan. For this, we chose a non-toxic concentration of Tdp1 inhibitors at 20 μM and varied the concentrations of topotecan.
as §2

[5] = molecular target: T1, tyrosyl-DNA phosphodiesterase 1 (Tdp1); conditions: previous work of the group; read-out: Tdp1 IC50 of previously synthesized berberine derivatives; cited from earlier work

T1 sequence (Q9NUW8 whole entry): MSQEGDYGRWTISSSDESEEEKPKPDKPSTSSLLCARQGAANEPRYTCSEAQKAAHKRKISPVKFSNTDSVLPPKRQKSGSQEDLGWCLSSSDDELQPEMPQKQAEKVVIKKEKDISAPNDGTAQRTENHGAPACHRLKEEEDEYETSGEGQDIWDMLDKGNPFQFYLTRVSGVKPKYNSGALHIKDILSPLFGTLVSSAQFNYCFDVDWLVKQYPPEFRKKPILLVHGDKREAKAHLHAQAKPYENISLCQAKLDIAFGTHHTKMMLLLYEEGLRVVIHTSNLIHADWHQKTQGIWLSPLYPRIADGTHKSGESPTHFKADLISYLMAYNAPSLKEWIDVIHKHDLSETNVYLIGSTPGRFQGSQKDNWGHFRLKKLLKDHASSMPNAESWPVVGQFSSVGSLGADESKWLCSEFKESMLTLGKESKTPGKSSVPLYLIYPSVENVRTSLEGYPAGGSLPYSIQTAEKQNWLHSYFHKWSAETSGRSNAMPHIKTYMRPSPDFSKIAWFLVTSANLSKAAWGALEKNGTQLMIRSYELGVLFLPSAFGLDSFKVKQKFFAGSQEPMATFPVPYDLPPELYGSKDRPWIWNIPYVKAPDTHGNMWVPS

| Structure (SMILES) | IC50 [1] | CC50 at 3 days [2] [µM] | other results |
| --- | --- | --- | --- |
| COc1ccc2c3c1OS(=O)(=O)CC3N1CCc3cc4c(cc3C1=C2)OCO4 (stereo not drawn) [10a, 19-Methoxy-8,10,21-trioxa-22λ⁶-thia-2-azahexacyclo[14.7.1.0^2,¹⁴.0⁵,¹^3.0⁷,¹¹.0^2⁰,^2⁴]tetracosa-5,7(11),12,14,16,18,20(24)-heptaene-22,22-dione] | 1.53 ± 0.18 µM | > 100 | – |
| COc1ccc2c3c1OS(=O)(=O)C(C)C3N1CCc3cc4c(cc3C1=C2)OCO4 (stereo not drawn) [10b, 19-Methoxy-23-methyl-8,10,21-trioxa-22λ⁶-thia-2-azahexacyclo[14.7.1.0^2,¹⁴.0⁵,¹^3.0⁷,¹¹.0^2⁰,^2⁴]tetracosa-5,7(11),12,14,16,18,20(24)-heptaene-22,22-dione] | 2.13 ± 0.16 µM | > 100 | – |
| CCC1C2c3c(ccc(OC)c3OS1(=O)=O)C=C1c3cc4c(cc3CCN12)OCO4 (stereo not drawn) [10c, 23-Ethyl-19-methoxy-8,10,21-trioxa-22λ⁶-thia-2-azahexacyclo[14.7.1.0^2,¹⁴.0⁵,¹^3.0⁷,¹¹.0^2⁰,^2⁴]tetracosa-5,7(11),12,14,16,18,20(24)-heptaene-22,22-dione] | 5.5 ± 0.1 µM | > 100 | – |
| CCCC1C2c3c(ccc(OC)c3OS1(=O)=O)C=C1c3cc4c(cc3CCN12)OCO4 (stereo not drawn) [10d, 19-Methoxy-23-propyl-8,10,21-trioxa-22λ⁶-thia-2-azahexacyclo[14.7.1.0^2,¹⁴.0⁵,¹^3.0⁷,¹¹.0^2⁰,^2⁴]tetracosa-5,7(11),12,14,16,18,20(24)-heptaene-22,22-dione] | 1.12 ± 0.18 µM | > 100 | – |
| COc1ccc2c3c1OS(=O)(=O)C=C3N1CCc3cc4c(cc3C1=C2)OCO4 [16a, 19-Methoxy-8,10,21-trioxa-22λ⁶-thia-2-azahexacyclo[14.7.1.0^2,¹⁴.0⁵,¹^3.0⁷,¹¹.0^2⁰,^2⁴]tetracosa-1(23),5,7(11),12,14,16,18,20(24)-octaene-22,22-dione] | 2.5 ± 0.4 µM | ~100 | concentration above which toxic to HeLa cells ([3]; human, 3 days): above 20 μM |
| COc1cc(Br)c2c3c1OS(=O)(=O)CC3N1CCc3cc4c(cc3C1=C2)OCO4 (stereo not drawn) [18a, 17-Bromo-19-methoxy-8,10,21-trioxa-22λ⁶-thia-2-azahexacyclo[14.7.1.0^2,¹⁴.0⁵,¹^3.0⁷,¹¹.0^2⁰,^2⁴]tetracosa-5,7(11),12,14,16,18,20(24)-heptaene-22,22-dione] | 0.925 µM and 0.92 µM | > 100 | – |
| COc1cc(Br)c2c3c1OS(=O)(=O)C(C)C3N1CCc3cc4c(cc3C1=C2)OCO4 (stereo not drawn) [18b, 17-Bromo-19-methoxy-23-methyl-8,10,21-trioxa-22λ⁶-thia-2-azahexacyclo[14.7.1.0^2,¹⁴.0⁵,¹^3.0⁷,¹¹.0^2⁰,^2⁴]tetracosa-5,7(11),12,14,16,18,20(24)-heptaene-22,22-dione] | 1.13 ± 0.2 µM | > 100 | – |
| CCC1C2c3c(c(Br)cc(OC)c3OS1(=O)=O)C=C1c3cc4c(cc3CCN12)OCO4 (stereo not drawn) [18c, 17-Bromo-23-ethyl-19-methoxy-8,10,21-trioxa-22λ⁶-thia-2-azahexacyclo[14.7.1.0^2,¹⁴.0⁵,¹^3.0⁷,¹¹.0^2⁰,^2⁴]tetracosa-5,7(11),12,14,16,18,20(24)-heptaene-22,22-dione] | 0.56 ± 0.02 µM | > 100 | sensitizing effect on topotecan cytotoxicity [4]: most pronounced and statistically significant; also recorded: enhances the cytotoxic effect of topotecan |
| CCCC1C2c3c(c(Br)cc(OC)c3OS1(=O)=O)C=C1c3cc4c(cc3CCN12)OCO4 (stereo not drawn) [18d, 17-Bromo-19-methoxy-23-propyl-8,10,21-trioxa-22λ⁶-thia-2-azahexacyclo[14.7.1.0^2,¹⁴.0⁵,¹^3.0⁷,¹¹.0^2⁰,^2⁴]tetracosa-5,7(11),12,14,16,18,20(24)-heptaene-22,22-dione] | 0.78 ± 0.03 µM | > 100 | – |
| COc1ccc2c(c1OS(C)(=O)=O)CN1CCc3cc4c(cc3C1C2)OCO4 (stereo not drawn) [21a] | – | – | IC50 [5]: > 15 µM |
| CCS(=O)(=O)Oc1c(OC)ccc2c1CN1CCc3cc4c(cc3C1C2)OCO4 (stereo not drawn) [21b] | – | – | IC50 [5]: > 15 µM |
| COc1ccc2cc3[n+](cc2c1OC)CCc1cc2c(cc1-3)OCO2 [berberine 1, berberine] | – | – | CC50 at 3 days ([2]; HeLa cells, EZ4U test, 3 days, read-out: CC50 HeLa): 20 µM; concentration above which toxic to HeLa cells ([3]; HeLa cells): above 20 μM |
